Values after ≈ are worked out from the molar mass of the structure shown. Like-named read-outs stand apart in the source and are kept apart here.
Key:
Type in all cases: cell-based
[1] = test system: Plasmodium falciparum TM91C235; assay: In vitro antimalarial [3H]-hypoxanthine incorporation assay, TM91C235; conditions: Plasmodium falciparum; P. falciparum TM91C235 (multiple drug resistant isolate), 72 hours exposure
Procedure, shortened: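 Multidrug-resistant P. falciparum TM91C235 was run at 0.4% parasitemia and 1% hematocrit in folate/PABA-free RPMI-1640 with ALBUMAX, at 37° C under 5% CO2/5% O2. Compound was tested in duplicate at 25,000, 2,500 and 25 ng/ml, preexposed 48 h, then [3H]-hypoxanthine was added (72 h total). Counts are expressed relative to untreated parasite controls.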

[2] = test system: Plasmodium falciparum clone CDC/Sierra Leone I (D-6); assay: In vitro antimalarial [3H]-hypoxanthine incorporation serial dilution assay, D6; conditions: Plasmodium falciparum, D6, 72 h, P. falciparum D6, 72 hours exposure
Procedure, shortened: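 Blood-stage cultures in RPMI-1640 with 6% A+ erythrocytes and human plasma or ALBUMAX, 37° C under 5% CO2/5% O2. Compounds in two-fold dilutions over 11 concentrations; [3H]-hypoxanthine incorporation after 72 h total incubation, CPM normalised to untreated parasite controls; IC50 by non-linear logistic fit.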

[3] = test system: Plasmodium falciparum clone CDC/Indochina III (W-2); assay: In vitro antimalarial [3H]-hypoxanthine incorporation serial dilution assay, W2; conditions: Plasmodium falciparum; P. falciparum W2, 72 hours exposure
Excerpt: The in vitro screens for intrinsic antimalarial activity were based on modifications of the procedures described by Desjardins R E, Canfield C J, Haynes J D, Chulay J D. (Quantitative assessment of antimalarial activity in vitro by a semiautomated microdilution technique. Antimicrob Agents Chemother. 1979 December; 16(6):710-8.), Chulay J D, Haynes J D, Diggs C L. (Plasmodium falciparum: Assessment of in vitro growth by [3H]hypoxanthine incorporation. Exp. Parasitol. 1983 55:138-146.), and Milhous W K, Weatherly N F, Bowdre J H, Desjardins R E. (In vitro activities of and mechanisms of resistance to antifol antimalarial drugs. Antimicrob Agents Chemother. 1985 April; 27(4):525-30.). The system was limited to the assessment of the intrinsic activity against the erythrocytic asexual life cycle (blood schizontocides). Two Plasmodium falciparum clones from CDC/Indochina III (W-2) and CDC/Sierra Leone I (D-6) (Oduola A M, Weatherly N F, Bowdre J H, Desjardins R E. Plasmodium falciparum: cloning by single-erythrocyte micromanipulation and heterogeneity in vitro. Exp Parasitol. 1988 66(1):86-95.) were used for all assays. TM91C235, a multiple drug resistant isolate from Thailand, was used for the prescreening assay. W-2 is resistant to chloroquine, quinine, and pyrimethamine and susceptible to mefloquine. D-6 tends to be more resistant to mefloquine and susceptible to chloroquine, quinine, and pyrimethamine. All documents cited in this paragraph are incorporated by reference in their entirety.
All parasites were maintained in continuous long term cultures in RPMI-1640 medium supplemented with 6% washed human A positive (A+)(erythrocytes, 25 mM Hepes, […], and 10% heat inactivated A+human plasma or ALBUMAX® (lipid-rich bovine serum albumin; Invitrogen, Carlsbad, Calif.). All cultures and assays were conducted at 37° C. under an atmosphere of 5% CO2 and 5% O2, with a balance of N2.
After the preincubation, [^3H]-hypoxanthine was added to each well of the MTP. (The assay relies on the incorporation of radiolabeled hypoxanthine by the parasites, which indicates reproduction, and inhibition of isotope incorporation was attributed to activity of known or candidate antimalarial drugs). After 72 hr of total incubation time, the MTP were frozen to lyse the erythrocytes and parasites. The parasite DNA was recovered by harvesting the lysate onto glass-fiber filter plates using a Packard FilterMate™ Cell Harvester. The radioactivity was counted on a Packard TopCount™ microplate scintillation counter. The results were recorded as counts per minutes (CPM) per well at each drug concentration divided by the arithmetic mean of the CPM from the three untreated infection parasite control wells.
The serial dilution assay was conducted using the same assay conditions and stock solution of the compound used for the preliminary screen, described above. Both the D-6 and the W-2 clones were used. The compounds were diluted two-fold over 11 different concentration ranges with a starting concentration that was based on the preliminary screen. For each drug, the concentration response profile was determined and 50% inhibitory concentrations (IC50) were determined by using a non-linear, logistic dose response analysis program. […] For each assay, the IC50 for each clone was determined against the known antimalarials chloroquine and mefloquine. These control values established the compound's relative parasite susceptibility profile compared to known antimalarials. […]
The in vitro potency of the compounds has been compared with that of azithromycin to better gauge compounds suitable for further testing. As described above, parasites were exposed for 72 hours. Data from the in vitro potency tests of azithromycin against the three parasite strains have been averaged, and these numbers have been used for identification of “active” macrolide compounds.

[4] = compared with azithromycin, read-out: IC50 D6 (class symbol)

| SMILES | IC50 [1] [µg/mL] | IC50 ([2]; read-out: IC50 D6) [µg/mL] | IC50 [3] [µg/mL] | IC50 [2, 4] [µg/mL] |
| --- | --- | --- | --- | --- |
| CC[C@H]1OC(=O)[C@H](C)[C@@H](O[C@H]2C[C@@](C)(OC)[C@@H](O)[C@H](C)O2)[C@H](C)[C@@H](O[C@@H]2O[C@H](C)C[C@H](N(C)C)[C@H]2O)[C@](C)(O)C[C@@H](C)CN(CCCNC(=S)Nc2ccc(C)cc2)[C@H](C)[C@@H](O)[C@]1(C)O [Example 97] | 0.154 (≈ 0.164 µM) | 0.311 (≈ 0.33 µM) | 0.0671 (≈ 0.0713 µM) |  |
| CC[C@H]1OC(=O)[C@H](C)[C@@H](O[C@H]2C[C@@](C)(OC)[C@@H](O)[C@H](C)O2)[C@H](C)[C@@H](O[C@@H]2O[C@H](C)C[C@H](N(C)C)[C@H]2O)[C@](C)(O)C[C@@H](C)CN(CCCNC(=S)Nc2ccc(C#N)cc2)[C@H](C)[C@@H](O)[C@]1(C)O [Example 98] | 0.0745 (≈ 0.0782 µM) | 0.126 (≈ 0.132 µM) | 0.0476 (≈ 0.05 µM) |  |
| CC[C@H]1OC(=O)[C@H](C)[C@@H](O[C@H]2C[C@@](C)(OC)[C@@H](O)[C@H](C)O2)[C@H](C)[C@@H](O[C@@H]2O[C@H](C)C[C@H](N(C)C)[C@H]2O)[C@](C)(O)C[C@@H](C)CN(CCCNC(=S)Nc2ccc(F)cc2)[C@H](C)[C@@H](O)[C@]1(C)O [Example 99] | 0.131 (≈ 0.139 µM) | 0.302 (≈ 0.32 µM) | 0.0688 (≈ 0.0728 µM) |  |
| CC[C@H]1OC(=O)[C@H](C)[C@@H](O[C@H]2C[C@@](C)(OC)[C@@H](O)[C@H](C)O2)[C@H](C)[C@@H](O[C@@H]2O[C@H](C)C[C@H](N(C)C)[C@H]2O)[C@](C)(O)C[C@@H](C)CN(CCCNC(=S)NC(=O)c2ccccc2)[C@H](C)[C@@H](O)[C@]1(C)O [Example 100] | 0.275 (≈ 0.288 µM) | 0.284 (≈ 0.298 µM) | 0.102 (≈ 0.107 µM) |  |
| CCc1ccccc1NC(=S)NCCCN1C[C@H](C)C[C@@](C)(O)[C@H](O[C@@H]2O[C@H](C)C[C@H](N(C)C)[C@H]2O)[C@@H](C)[C@H](O[C@H]2C[C@@](C)(OC)[C@@H](O)[C@H](C)O2)[C@@H](C)C(=O)O[C@H](CC)[C@@](C)(O)[C@H](O)[C@H]1C [Example 101] | 0.24 (≈ 0.252 µM) | 0.425 (≈ 0.445 µM) | 0.0919 (≈ 0.0962 µM) |  |
| CC[C@H]1OC(=O)[C@H](C)[C@@H](O[C@H]2C[C@@](C)(OC)[C@@H](O)[C@H](C)O2)[C@H](C)[C@@H](O[C@@H]2O[C@H](C)C[C@H](N(C)C)[C@H]2O)[C@](C)(O)C[C@@H](C)CN(CCCNC(=S)Nc2ccc(OC)cc2)[C@H](C)[C@@H](O)[C@]1(C)O [Example 102] | 0.201 (≈ 0.209 µM) | 0.46 (≈ 0.48 µM) | 0.0737 (≈ 0.077 µM) |  |
| CC[C@H]1OC(=O)[C@H](C)[C@@H](O[C@H]2C[C@@](C)(OC)[C@@H](O)[C@H](C)O2)[C@H](C)[C@@H](O[C@@H]2O[C@H](C)C[C@H](N(C)C)[C@H]2O)[C@](C)(O)C[C@@H](C)CN(CCCNC(=S)Nc2ccc(Cl)cc2)[C@H](C)[C@@H](O)[C@]1(C)O [Example 103] | 0.103 (≈ 0.108 µM) | 0.18 (≈ 0.188 µM) | 0.0514 (≈ 0.0534 µM) |  |
| CC[C@H]1OC(=O)[C@H](C)[C@@H](O[C@H]2C[C@@](C)(OC)[C@@H](O)[C@H](C)O2)[C@H](C)[C@@H](O[C@@H]2O[C@H](C)C[C@H](N(C)C)[C@H]2O)[C@](C)(O)C[C@@H](C)CN(CCCNC(=S)Nc2c(F)cccc2F)[C@H](C)[C@@H](O)[C@]1(C)O [Example 104] | 0.181 (≈ 0.188 µM) | 0.49 (≈ 0.509 µM) | 0.0831 (≈ 0.0863 µM) |  |
| CC[C@H]1OC(=O)[C@H](C)[C@@H](O[C@H]2C[C@@](C)(OC)[C@@H](O)[C@H](C)O2)[C@H](C)[C@@H](O[C@@H]2O[C@H](C)C[C@H](N(C)C)[C@H]2O)[C@](C)(O)C[C@@H](C)CN(CCCNC(=S)Nc2ccc([N+](=O)[O-])cc2)[C@H](C)[C@@H](O)[C@]1(C)O [Example 105] | 0.0237 (≈ 0.0244 µM) | 0.0184 (≈ 0.0189 µM) | 0.0201 (≈ 0.0207 µM) |  |
| CC[C@H]1OC(=O)[C@H](C)[C@@H](O[C@H]2C[C@@](C)(OC)[C@@H](O)[C@H](C)O2)[C@H](C)[C@@H](O[C@@H]2O[C@H](C)C[C@H](N(C)C)[C@H]2O)[C@](C)(O)C[C@@H](C)CN(CCCNC(=S)Nc2ccc(OC(F)F)cc2)[C@H](C)[C@@H](O)[C@]1(C)O [Example 106] | 0.12 (≈ 0.121 µM) | 0.215 (≈ 0.216 µM) | 0.0626 (≈ 0.063 µM) |  |
| CC[C@H]1OC(=O)[C@H](C)[C@@H](O[C@H]2C[C@@](C)(OC)[C@@H](O)[C@H](C)O2)[C@H](C)[C@@H](O[C@@H]2O[C@H](C)C[C@H](N(C)C)[C@H]2O)[C@](C)(O)C[C@@H](C)CN(CCCNC(=S)NCCCSC)[C@H](C)[C@@H](O)[C@]1(C)O [Example 109] | 0.332 (≈ 0.354 µM) | 0.843 (≈ 0.898 µM) | 0.19 (≈ 0.202 µM) |  |
| CC[C@H]1OC(=O)[C@H](C)[C@@H](O[C@H]2C[C@@](C)(OC)[C@@H](O)[C@H](C)O2)[C@H](C)[C@@H](O[C@@H]2O[C@H](C)C[C@H](N(C)C)[C@H]2O)[C@](C)(O)C[C@@H](C)CN(CCCNC(=S)Nc2ccc(C3CC4CCC3C4)cc2)[C@H](C)[C@@H](O)[C@]1(C)O.O=CO (stereo partly drawn) [Example 110] | 0.111 | 0.247 | 0.0461 |  |
| C=CCNC(=S)NCCCN1C[C@H](C)C[C@@](C)(O)[C@H](O[C@@H]2O[C@H](C)C[C@H](N(C)C)[C@H]2O)[C@@H](C)[C@H](O[C@H]2C[C@@](C)(OC)[C@@H](O)[C@H](C)O2)[C@@H](C)C(=O)O[C@H](CC)[C@@](C)(O)[C@H](O)[C@H]1C [Example 111] | 0.459 (≈ 0.514 µM) |  | 0.246 (≈ 0.276 µM) | > 0.797 |
| CCOC(=O)c1ccc(NC(=S)NCCCN2C[C@H](C)C[C@@](C)(O)[C@H](O[C@@H]3O[C@H](C)C[C@H](N(C)C)[C@H]3O)[C@@H](C)[C@H](O[C@H]3C[C@@](C)(OC)[C@@H](O)[C@H](C)O3)[C@@H](C)C(=O)O[C@H](CC)[C@@](C)(O)[C@H](O)[C@H]2C)cc1 [Example 112] | 0.107 (≈ 0.107 µM) | 0.121 (≈ 0.121 µM) | 0.0709 (≈ 0.0709 µM) |  |
| CC[C@H]1OC(=O)[C@H](C)[C@@H](O[C@H]2C[C@@](C)(OC)[C@@H](O)[C@H](C)O2)[C@H](C)[C@@H](O[C@@H]2O[C@H](C)C[C@H](N(C)C)[C@H]2O)[C@](C)(O)C[C@@H](C)CN(CCCNC(=S)NC2CC2)[C@H](C)[C@@H](O)[C@]1(C)O [Example 113] | 0.866 (≈ 0.972 µM) |  | 0.605 (≈ 0.679 µM) | > 0.797 |
| CC[C@H]1OC(=O)[C@H](C)[C@@H](O[C@H]2C[C@@](C)(OC)[C@@H](O)[C@H](C)O2)[C@H](C)[C@@H](O[C@@H]2O[C@H](C)C[C@H](N(C)C)[C@H]2O)[C@](C)(O)C[C@@H](C)CN(CCCNC(=S)Nc2ccc(N(CC)CC)cc2)[C@H](C)[C@@H](O)[C@]1(C)O.O=CO [Example 121] | 0.312 | 0.799 | 0.714 |  |
| CC[C@H]1OC(=O)[C@H](C)[C@@H](O[C@H]2C[C@@](C)(OC)[C@@H](O)[C@H](C)O2)[C@H](C)[C@@H](O[C@@H]2O[C@H](C)C[C@H](N(C)C)[C@H]2O)[C@](C)(O)C[C@@H](C)CN(CCCNC(=S)N[C@H]2CCCC[C@@H]2OCc2ccccc2)[C@H](C)[C@@H](O)[C@]1(C)O.O=CO [Example 123] | 0.137 | 0.7 | 0.297 |  |
| CC[C@H]1OC(=O)[C@H](C)[C@@H](O[C@H]2C[C@@](C)(OC)[C@@H](O)[C@H](C)O2)[C@H](C)[C@@H](O[C@@H]2O[C@H](C)C[C@H](N(C)C)[C@H]2O)[C@](C)(O)C[C@@H](C)CN(CCCNC(=S)Nc2ccc(Cl)c(C(F)(F)F)c2)[C@H](C)[C@@H](O)[C@]1(C)O [Example 124] | 0.0122 (≈ 0.0118 µM) | 0.0559 (≈ 0.0543 µM) | 0.0575 (≈ 0.0558 µM) |  |

From US20080200404A1, “Novel Antimalarial 9A-Carbamoyl-Aminoalkyl and 9A-Thiocarbamoyl-Aminoalkyl Azalides” (priority 2005, published 2008)
